For 39 compounds, IC50 results are on record in patent publication US20240034736A1, “HSD17B13 INHIBITORS AND USES THEREOF” (FL2022-001, Inc., priority 2020, published 2024).

pIC50: −log10 of the molar value.

The target in the experiment is Recombinant human HSD17B13 enzyme (Homo sapiens (Human), UniProt Q7Z5P4). The experiment is described as follows: HSD17b13 NAD(P)H-Glo Biochemical Assay. As to conditions: 50 uM estradiol, 1 mM NAD+; read-out: HSD17β13 IC50. The protocol: Recombinant human HSD17B13 enzyme. Substrate: estradiol (Sigma β-Estradiol E8875), 100 mM in DMSO. […] Assay buffer final concentration: 20 mM Tris pH7.4 with 0.002% Tween-20 and 0.02% BSA. […] Enzymatic activity detected by NAD(P)H-Glo™ Detection System (Promega G9062).
Chain of Recombinant human HSD17B13 enzyme (Q7Z5P4 20-300): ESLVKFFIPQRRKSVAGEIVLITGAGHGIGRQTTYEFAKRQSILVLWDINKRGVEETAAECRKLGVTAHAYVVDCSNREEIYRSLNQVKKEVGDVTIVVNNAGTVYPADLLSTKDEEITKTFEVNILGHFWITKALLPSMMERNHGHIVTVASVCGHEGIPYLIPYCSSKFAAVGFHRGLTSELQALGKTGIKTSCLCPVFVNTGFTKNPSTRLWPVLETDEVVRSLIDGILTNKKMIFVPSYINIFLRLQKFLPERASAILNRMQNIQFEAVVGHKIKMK
Inhibitor compounds were serially diluted in DMSO and then further diluted in assay buffer to a 10× concentration consisting of 1% DMSO.
HSD17b13 enzyme was diluted in 1× assay buffer to the desired enzyme concentration based on the specific activity of the enzyme lot. 20 uL of diluted enzyme was added to each well along with 2.5 uL of 10× inhibitor solution. Assay plate was incubated at RT for 20 minutes, and then 2.5 uL of a 10× substrate/cofactor mix was added to each well for a final concentration of 50 uM estradiol and 1 mMNAD+. Assay plate was incubated at 37° C. for 3 hours. NAD(P)H-Glo™ Detection System reagents were prepared according to manufacturer's specifications, and 25 uL was added to each well. After incubating for 1 hour at RT, luminescence was measured.
Regarding `N#Cc1cc(O)ccc1-c1ccc2c(cnn2-c2ccc(F)c(O)c2)c1` [Compound 5.07, 2-(1-(4-Fluoro-3-hydroxyphenyl)-1H-indazol-5-yl)-5-hydroxybenzonitrile], the pIC50 was 6.00 to 7.00.

For the compound `Oc1cc(-n2ncc3cc(-c4ccc(OC(F)F)cc4Cl)ccc32)ccc1F` [Compound 5.08, 5-(5-(2-Chloro-4-(difluoromethoxy)phenyl)-1H-indazol-1-yl)-2-fluorophenol], the pIC50 was 6.00 to 7.00. As for `Oc1cc(-n2ncc3cc(-c4ccc(N5CCOCC5)cc4Cl)ccc32)ccc1F` [Compound 5.09, 5-(5-(2-Chloro-4-morpholinophenyl)-1H-indazol-1-yl)-2-fluorophenol], the pIC50 is 4.52 to 6.00.

For `CN(C)C(=O)c1ccc(-c2ccc3c(cnn3-c3ccc(F)c(O)c3)c2)c(Cl)c1` [Compound 5.10, 3-Chloro-4-(1-(4-fluoro-3-hydroxyphenyl)-1H-indazol-5-yl)-N,N-dimethylbenzamide], the pIC50 was 6.00 to 7.00.

For the compound `N#Cc1ccc(-c2ccc3c(cnn3-c3ccc(F)c(O)c3)c2)c(Cl)c1` [Compound 5.11, 3-Chloro-4-(1-(4-fluoro-3-hydroxyphenyl)-1H-indazol-5-yl)benzonitrile], the pIC50 is 6.00 to 7.00. With `OCc1ccc(-c2ccc3c(cnn3-c3ccc(F)c(O)c3)c2)c(Cl)c1` [Compound 5.12, 5-(5-(2-Chloro-4-(hydroxymethyl)phenyl)-1H-indazol-1-yl)-2-fluorophenol], the pIC50 was 6.00 to 7.00.

Regarding `CNS(=O)(=O)c1ccc(-c2ccc3c(cnn3-c3ccc(F)c(O)c3)c2)cc1` [Compound 5.13, 4-(1-(4-Fluoro-3-hydroxyphenyl)-1H-indazol-5-yl)-N-methylbenzenesulfonamide], the pIC50 is 6.00 to 7.00. For the compound `CS(=O)(=O)Nc1ccccc1-c1ccc2c(cnn2-c2ccc(F)c(O)c2)c1` [Compound 5.14, N-(2-(1-(4-Fluoro-3-hydroxyphenyl)-1H-indazol-5-yl)phenyl)methanesulfonamide], the pIC50 was 4.52 to 6.00. On to `Oc1cc(-n2ncc3cc(-c4ccc(C(F)F)cc4)ccc32)ccc1F` [Compound 5.15, 5-(5-(4-(Difluoromethyl)phenyl)-1H-indazol-1-yl)-2-fluorophenol], for which the pIC50 was 6.00 to 7.00. In the case of `Oc1ccc(-c2ccc3c(cnn3-c3ccc(F)c(O)c3)c2)c(C(F)(F)F)c1` [Compound 5.16, 2-Fluoro-5-(5-(4-hydroxy-2-(trifluoromethyl)phenyl)-1H-indazol-1-yl)phenol] it was 6.00 to 7.00. Turning to `Cc1n[nH]c(C)c1-c1ccc2c(cnn2-c2ccc(F)c(O)c2)c1` [Compound 5.17, 5-(5-(3,5-Dimethyl-1H-pyrazol-4-yl)-1H-indazol-1-yl)-2-fluorophenol], the pIC50 was 6.00 to 7.00. `CC(=O)Nc1ccc(-c2ccc3c(cnn3-c3ccc(F)c(O)c3)c2)c(Cl)c1` [Compound 5.18, N-(3-Chloro-4-(1-(4-fluoro-3-hydroxyphenyl)-1H-indazol-5-yl)phenyl)acetamide]: the pIC50 was 6.00 to 7.00. In the case of `Cc1cc(O)ccc1-c1ccc2c(cnn2-c2ccc(F)c(O)c2)c1` [Compound 5.19, 2-Fluoro-5-(5-(4-hydroxy-2-methylphenyl)-1H-indazol-1-yl)phenol] it was 6.00 to 7.00. With `COc1ccccc1-c1ccc2c(cnn2-c2ccc(F)c(O)c2)c1` [Compound 5.20, 2-Fluoro-5-(5-(2-methoxyphenyl)-1H-indazol-1-yl)phenol], the pIC50 is 6.00 to 7.00. Regarding `COc1cccc(-c2ccc3c(cnn3-c3ccc(F)c(O)c3)c2)c1` [Compound 5.21, 2-Fluoro-5-(5-(3-methoxyphenyl)-1H-indazol-1-yl)phenol], the pIC50 was 4.52 to 6.00. On to `COc1ccc(-c2ccc3c(cnn3-c3ccc(F)c(O)c3)c2)cc1` [Compound 5.22, 2-Fluoro-5-(5-(4-methoxyphenyl)-1H-indazol-1-yl)phenol], for which the pIC50 is 6.00 to 7.00. In the case of `O=C(O)c1ccccc1-c1ccc2c(cnn2-c2ccc(F)c(O)c2)c1` [Compound 5.23, 2-(1-(4-Fluoro-3-hydroxyphenyl)-1H-indazol-5-yl)benzoic acid] it was 4.52 to 6.00; in that of `O=C(O)c1cccc(-c2ccc3c(cnn3-c3ccc(F)c(O)c3)c2)c1` [Compound 5.24, 3-(1-(4-Fluoro-3-hydroxyphenyl)-1H-indazol-5-yl)benzoic acid], 4.52 to 6.00; in that of `CN(C)S(=O)(=O)c1ccc(-c2ccc3c(cnn3-c3ccc(F)c(O)c3)c2)cc1` [Compound 5.25, 4-(1-(4-Fluoro-3-hydroxyphenyl)-1H-indazol-5-yl)-N,N-dimethylbenzenesulfonamide], 6.00 to 7.00. In the case of `CNC(=O)c1ccc(-c2ccc3c(cnn3-c3ccc(F)c(O)c3)c2)c(Cl)c1` [Compound 5.26, 3-Chloro-4-(1-(4-fluoro-3-hydroxyphenyl)-1H-indazol-5-yl)-N-methylbenzamide], the pIC50 is 6.00 to 7.00. With `Oc1ccc(-c2ncc3c(cnn3-c3ccc(F)c(O)c3)n2)c(Cl)c1` [Compound 5.27, 5-(5-(2-Chloro-4-hydroxyphenyl)-1H-pyrazolo[4,3-d]pyrimidin-1-yl)-2-fluorophenol], the pIC50 was 6.00 to 7.00. With `Oc1cc(-n2ncc3nc(-c4ccc(O)c(Cl)c4)ncc32)ccc1F` [Compound 5.28, 2-Chloro-4-(1-(4-fluoro-3-hydroxyphenyl)-1H-pyrazolo[4,3-d]pyrimidin-5-yl)phenol] the figure was 4.52 to 6.00.

For the compound `O=C(O)COc1ccc(-c2ccc3c(cnn3-c3ccc(F)c(O)c3)c2)cc1` [Compound 5.29, 2-(4-(1-(4-Fluoro-3-hydroxyphenyl)-1H-indazol-5-yl)phenoxy)acetic acid], the pIC50 is 4.52 to 6.00. As for `Oc1cc(-c2noc3cc(-c4ccc(O)c(Cl)c4)ccc23)ccc1F` [Compound 5.30, 2-Chloro-4-(3-(4-fluoro-3-hydroxyphenyl)benzo[d]isoxazol-6-yl)phenol], the pIC50 is 6.00 to 7.00. For `N#Cc1ccccc1-c1ccc2c(cnn2-c2ccc(F)c(O)c2)c1` [Compound 6, 2-(1-(4-Fluoro-3-hydroxyphenyl)-1H-indazol-5-yl)benzonitrile], the pIC50 is 6.00 to 7.00. Turning to `N#Cc1cccc(-c2ccc3c(cnn3-c3ccc(F)c(O)c3)c2)c1` [Compound 6.01, 3-(1-(4-Fluoro-3-hydroxyphenyl)-1H-indazol-5-yl)benzonitrile], the pIC50 was 6.00 to 7.00. For the compound `Oc1cc(-n2ncc3cc(-c4cncc(Cl)c4)ccc32)cc(F)c1F` [Compound 7, 5-(5-(5-Chloropyridin-3-yl)-1H-indazol-1-yl)-2,3-difluorophenol], the pIC50 is 6.00 to 7.00. For the compound `COc1ccc(-c2ccc3c(cnn3-c3cc(O)c(F)c(F)c3)c2)cn1` [Compound 7.01, 2,3-Difluoro-5-(5-(6-methoxypyridin-3-yl)-1H-indazol-1-yl)phenol], the pIC50 is 6.00 to 7.00. In the case of `Cc1ccc(-c2ccc3c(cnn3-c3cc(O)c(F)c(F)c3)c2)cn1` [Compound 7.02, 2,3-Difluoro-5-(5-(6-methylpyridin-3-yl)-1H-indazol-1-yl)phenol] it was 6.00 to 7.00; in that of `Oc1cncc(-c2ccc3c(cnn3-c3cc(O)c(F)c(F)c3)c2)c1` [Compound 7.03, 5-(1-(3,4-Difluoro-5-hydroxyphenyl)-1H-indazol-5-yl)pyridine-3-ol], 6.00 to 7.00. Take `Oc1cc(-n2ncc3cc(-c4cncc(F)c4)ccc32)cc(F)c1F` [Compound 7.04, 2,3-Difluoro-5-(5-(5-fluoropyridin-3-yl)-1H-indazol-1-yl)phenol]: the pIC50 was 6.00 to 7.00. On to `Oc1ccc(-c2ccc3c(cnn3-c3ccc(F)c(O)c3F)c2)cc1Cl` [Compound 8, 3-(5-(3-Chloro-4-hydroxyphenyl)-1H-indazol-1-yl)-2,6-difluorophenol], for which the pIC50 was 6.00 to 7.00. Regarding `Oc1cc(-n2ncc3cc(-c4ccc(O)c(Cl)c4)cnc32)ccc1F` [Compound 8.01, 2-Chloro-4-(1-(4-fluoro-3-hydroxyphenyl)-1H-pyrazolo[3,4-b]pyridine-5-yl)phenol], the pIC50 was 6.00 to 7.00. Regarding `Oc1cc(-n2ncc3cc(-c4ccc(O)c(Cl)c4)ccc32)c(F)cc1F` [Compound 8.02, 5-(5-(3-Chloro-4-hydroxyphenyl)-1H-indazol-1-yl)-2,4-difluorophenol], the pIC50 is 6.00 to 7.00. With `Oc1cc(-n2ncc3nc(-c4ccc(O)c(Cl)c4)ccc32)ccc1F` [Compound 8.03, 2-Chloro-4-(1-(4-fluoro-3-hydroxyphenyl)-1H-pyrazolo[4,3-b]pyridine-5-yl)phenol], the pIC50 is 4.52 to 6.00.

On to `Nc1ccc(-c2ccc3c(cnn3-c3ccc(F)c(O)c3)c2)c(Cl)c1` [Compound 9, 5-(5-(4-Amino-2-chlorophenyl)-1H-indazol-1-yl)-2-fluorophenol], for which the pIC50 was 6.00 to 7.00. Take `CS(=O)(=O)Nc1ccc(-c2ccc3c(cnn3-c3ccc(F)c(O)c3)c2)c(Cl)c1` [Compound 10, N-(3-Chloro-4-(1-(4-fluoro-3-hydroxyphenyl)-1H-indazol-5-yl)phenyl)methanesulfonamide]: the pIC50 was 6.00 to 7.00. For `CC(C)S(=O)(=O)Nc1ccc(-c2ccc3c(cnn3-c3ccc(F)c(O)c3)c2)cc1` [Compound 11, N-(4-(1-(4-Fluoro-3-hydroxyphenyl)-1H-indazol-5-yl)phenyl)propane-2-sulfonamide], the negative logarithm of the IC50 (pIC50) was 6.00 to 7.00. As for `O=S(=O)(Nc1ccc(-c2ccc3c(cnn3-c3ccc(F)c(O)c3)c2)cc1)c1ccccc1` [Compound 11.01, N-(4-(1-(4-Fluoro-3-hydroxyphenyl)-1H-indazol-5-yl)phenyl)benzenesulfonamide], the pIC50 is 6.00 to 7.00.

The pIC50 is the negative decadic logarithm of the IC50, by convention in mol/L.
